The values that follow are results of earlier work, collected in paper PMC8445767 (Bioorganic Chemistry, 2021).

The test system of data set [1] is herpes simplex virus type 1. Conditions: read-out: IC50 against herpes simplex virus type 1.
In data set [2] the test system is herpes simplex virus type 1. The settings on record: read-out: IC50 against herpes simplex virus type 1. The source holds these as a separate data set.

Read-outs that look alike come from different tables or passages of the source.

Turning to Aspergilli peptide D [XI], in data set [1], the IC50 (commonly the midpoint of a concentration-inhibition curve) was 9.5 µM.
Simplicilliumtide J [XIV]: the IC50 in data set [2] is 14 µM.
